Data as given in patent US7186743B2, “Substituted pyrazolyl compounds for the treatment of inflammation” (Pharmacia Corporation, priority 2001, dated 2007).
Structures can show the parent of a compound that is named as a salt.

target: T1, IKK2 (Homo sapiens, UniProt O14920); test: IKKβ Resin Enzyme Assay (IKK2 resin); type: biochemical; settings: Table 11; read-out: IKK2 Resin IC50
T1 construct: made in house; host or cells: insect cells (baculovirus, pFastBac; SF9)
T1 sequence (O14920 1-756): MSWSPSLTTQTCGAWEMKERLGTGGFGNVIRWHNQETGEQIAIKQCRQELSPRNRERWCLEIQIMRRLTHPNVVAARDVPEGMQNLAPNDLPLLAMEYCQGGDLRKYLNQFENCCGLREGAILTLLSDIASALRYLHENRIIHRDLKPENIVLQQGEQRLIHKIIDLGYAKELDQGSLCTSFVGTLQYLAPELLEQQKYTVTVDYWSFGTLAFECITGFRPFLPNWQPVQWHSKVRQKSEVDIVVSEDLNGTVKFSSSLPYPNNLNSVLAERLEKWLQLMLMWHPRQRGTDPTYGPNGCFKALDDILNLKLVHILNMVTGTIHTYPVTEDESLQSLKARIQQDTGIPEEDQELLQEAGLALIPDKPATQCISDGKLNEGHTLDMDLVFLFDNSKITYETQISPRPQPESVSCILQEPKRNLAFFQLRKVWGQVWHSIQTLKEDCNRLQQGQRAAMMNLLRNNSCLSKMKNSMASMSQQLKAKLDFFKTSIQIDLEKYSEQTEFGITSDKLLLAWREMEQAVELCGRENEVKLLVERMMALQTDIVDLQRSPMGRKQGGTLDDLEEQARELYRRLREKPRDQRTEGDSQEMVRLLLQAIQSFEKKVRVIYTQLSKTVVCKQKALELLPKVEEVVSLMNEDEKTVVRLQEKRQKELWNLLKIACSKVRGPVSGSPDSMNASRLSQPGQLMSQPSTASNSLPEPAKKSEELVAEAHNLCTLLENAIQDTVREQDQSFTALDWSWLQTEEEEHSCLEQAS
How it was run: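 Enzyme: human IKK2 with a C-terminal FLAG tag, baculovirus-expressed, purified as homodimer on anti-FLAG resin. It phosphorylates a biotinylated IκBα peptide with 1 μM ATP plus [γ-33P]ATP in 25 mM Hepes pH 7.6, Mg/Mn, for 30 min at 25° C. Incorporation is counted by scintillation after anion-exchange resin stop.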

Row | Structure (SMILES) | IC50 [nM]
1 | NC(=O)c1nn(-c2ccc(/C=C/CCO)cc2)c2c1CCc1ccc(NC(=O)c3ccccc3Cl)cc1-2 [Example 298, 8-[(2-chlorobenzoyl)amino]-1-{4-[(1E)-4-hydroxybut-1-enyl]phenyl}-4,5-dihydro-1H-benzo[g]indazole-3-carboxamide] | ≤ 1000
2 | NC(=O)c1nn(-c2ccc(CCC(=O)CO)cc2)c2c1CCc1ccc(NC(=O)c3ccccc3Cl)cc1-2 [Example 299, 8-[(2-chlorobenzoyl)amino]-1-[4-(4-hydroxy-3-oxobutyl)phenyl]-4,5-dihydro-1H-benzo[g]indazole-3-carboxamide] | ≤ 1000
3 | NC(=O)c1nn(-c2ccc(/C=C\CO)cc2)c2c1CCc1ccc(NC(=O)c3cccnc3Cl)cc1-2 [Example 300, 8-{[(2-chloropyridin-3-yl)carbonyl]amino}-1-{4-[(1Z)-3-hydroxyprop-1-enyl]phenyl}-4,5-dihydro-1H-benzo[g]indazole-3-carboxamide] | ≤ 1000
4 | CNC(=O)/C=C/c1ccc(-n2nc(C(N)=O)c3c2-c2cc(NC(=O)c4cccnc4Cl)ccc2CC3)cc1 [Example 301, 8-{[(2-chloropyridin-3-yl)carbonyl]amino}-1-{4-[(1E)-3-(methylamino)-3-oxoprop-1-enyl]phenyl}-4,5-dihydro-1H-benzo[g]indazole-3-carboxamide] | ≤ 1000
5 | CC(=O)CCc1ccc(-n2nc(C(N)=O)c3c2-c2cc(NC(=O)c4cccnc4Cl)ccc2CC3)cc1 [Example 302, 8-{[(2-chloropyridin-3-yl)carbonyl]amino}-1-[4-(3-oxobutyl)phenyl]-4,5-dihydro-1H-benzo[g]indazole-3-carboxamide] | ≤ 1000

same assay, conditions: Table 12; read-out: IKK2 Resin IC50

Row | Structure (SMILES) | IC50 [nM]
6 | COCCNC(=O)/C=C/c1ccc(-n2nc(C(N)=O)c3c2-c2cc(NC(=O)c4ccccc4Cl)ccc2CC3)cc1 [Example 309, 8-[(2-chlorobenzoyl)amino]-1-(4-{(1E)-3-[(2-methoxyethyl)amino]-3-oxoprop-1-enyl}phenyl)-4,5-dihydro-1H-benzo[g]indazole-3-carboxamide] | ≤ 1000
7 | NC(=O)c1nn(-c2ccc(/C=C/C(=O)NCc3ccco3)cc2)c2c1CCc1ccc(NC(=O)c3ccccc3Cl)cc1-2 [Example 310, 8-[(2-chlorobenzoyl)amino]-1-(4-{(1E)-3-[(2-furylmethyl)amino]-3-oxoprop-1-enyl}phenyl)-4,5-dihydro-1H-benzo[g]indazole-3-carboxamide] | ≤ 1000
8 | CNC(=O)/C=C/c1ccc(-n2nc(C(N)=O)c3c2-c2cc(NC(=O)c4ccccc4Cl)ccc2CC3)cc1 [Example 311, 8-[(2-chlorobenzoyl)amino]-1-{4-[(1E)-3-(methylamino)-3-oxoprop-1-enyl]phenyl}-4,5-dihydro-1H-benzo[g]indazole-3-carboxamide] | ≤ 1000
9 | CCNC(=O)/C=C/c1ccc(-n2nc(C(N)=O)c3c2-c2cc(NC(=O)c4ccccc4Cl)ccc2CC3)cc1 [Example 312, 8-[(2-chlorobenzoyl)amino]-1-{4-[(1E)-3-(ethylamino)-3-oxoprop-1-enyl]phenyl)-4,5-dihydro-1H-benzo[g]indazole-3-carboxamidee] | ≤ 1000

same assay, conditions: Table 14; read-out: IKK2 Resin IC50

Row | Structure (SMILES) | IC50 [nM]
10 | NC(=O)c1nn(-c2ccc([N+](=O)[O-])cc2)c2c1CCc1ccc(NC(=O)c3ccccc3Cl)cc1-2 [Example 324, 8-[(2-chlorobenzoyl)amino]-1-(4-nitrophenyl)-4,5-dihydro-1H-benzo[g]indazole-3-carboxamide] | ≤ 1000
11 | NC(=O)c1nn(-c2ccccc2)c2c1CCc1ccc(NC(=O)c3ccccc3Cl)cc1-2 [Example 328, 8-[(2-chlorobenzoyl)amino]-1-phenyl-4,5-dihydro-1H-benzo[g]indazole-3-carboxamide] | ≤ 1000
12 | NC(=O)c1nn(-c2ccccc2)c2c1CCc1ccc(NC(=O)c3ccncc3Cl)cc1-2 [Example 331, 8-[(3-chloroisonicotinoyl)amino]-1-phenyl-4,5-dihydro-1H-benzo[g]indazole-3-carboxamide] | ≤ 1000
13 | Cc1ccc(-n2nc(C(N)=O)c3c2-c2cc(NC(=O)c4ccccc4Cl)ccc2CC3)cc1 [Example 335, 8-[(2-chlorobenzoyl)amino]-1-(4-methylphenyl)-4,5-dihydro-1H-benzo[g]indazole-3-carboxamide] | ≤ 1000
14 | NC(=O)c1nn(-c2ccncc2)c2c1CCc1ccc(NC(=O)c3ccccc3Cl)cc1-2 [Example 338, 8-[(2-chlorobenzoyl)amino]-1-pyridin-4-yl-4,5-dihydro-1H-benzo[g]mdazole-3-carboxamide] | ≤ 1000
15 | NC(=O)c1nn(-c2cccc(F)c2)c2c1CCc1ccc(NC(=O)c3ccccc3Cl)cc1-2 [Example 339, 8-[(2-chlorobenzoyl)amino]-1-(3-fluorophenyl)-4,5-dihydro-1H-benzo[g]indazole-3-carboxamide] | ≤ 1000
16 | NC(=O)c1nn(-c2ccccc2F)c2c1CCc1ccc(NC(=O)c3ccccc3Cl)cc1-2 [Example 341, 8-[(2-chlorobenzoyl)amino]-1-(2-fluorophenyl)-4,5-dihydro-1H-benzo[g]indazole-3-carboxamide] | ≤ 1000
17 | NC(=O)c1nn(-c2cccc(F)c2)c2c1CCc1ccc(NC(=O)c3cccnc3Cl)cc1-2 [Example 345, 8-{[(2-chloropyridin-3-yl)carbonyl]amino}-1-(3-fluorophenyl)-4,5-dihydro-1H-benzo[g]indazole-3-carboxamide] | ≤ 1000
18 | NC(=O)c1nn(-c2cc(F)cc(F)c2)c2c1CCc1ccc(NC(=O)c3cccnc3Cl)cc1-2 [Example 347, 8-{[(2-chloropyridin-3-yl)carbonyl]amino}-1-(3,5-difluorophenyl)-4,5-dihydro-1H-benzo[g]indazole-3-carboxamide] | ≤ 1000
19 | NC(=O)c1nn(-c2ccc(Br)cc2)c2c1CCc1ccc(NC(=O)c3ccccc3Cl)cc1-2 [Example 350, 1-(4-bromophenyl)-8-[(2-chlorobenzoyl)amino]-4,5-dihydro-1H-benzo[g]indazole-3-carboxamide] | ≤ 1000
20 | NC(=O)c1nn(-c2ccc(F)cc2F)c2c1CCc1ccc(NC(=O)c3ccccc3Cl)cc1-2 [Example 353, 8-[(2-chlorobenzoyl)amino]-1-(2,4-difluorophenyl)-4,5-dihydro-1H-benzo[g]indazole-3-carboxamide] | ≤ 1000
21 | NC(=O)c1nn(-c2ccc(F)c(F)c2)c2c1CCc1ccc(NC(=O)c3ccncc3Cl)cc1-2 [Example 354, 8-[(3-chloroisonicotinoyl)amino]-1-(3,4-difluorophenyl)-4,5-dihydro-1H-benzo[g]indazole-3-carboxamide] | ≤ 1000
22 | NC(=O)c1nn(-c2cc(F)cc(F)c2)c2c1CCc1ccc(NC(=O)c3ccncc3Cl)cc1-2 [Example 355, 8-[(3-chloroisonicotinoyl)amino]-1-(3,5-difluorophenyl)-4,5-dihydro-1H-benzo[g]indazole-3-carboxamide] | ≤ 1000
23 | NC(=O)c1nn(-c2ccc(F)c(Cl)c2)c2c1CCc1ccc(NC(=O)c3ccccc3Cl)cc1-2 [Example 356, 8-[(2-chlorobenzoyl)amino]-1-(3-chloro-4-fluorophenyl)-4,5-dihydro-1H-benzo[g]indazole-3-carboxamide] | ≤ 1000
24 | NC(=O)c1nn(-c2ccc(S(=O)(=O)C(F)(F)F)cc2)c2c1CCc1ccc(NC(=O)c3ccncc3Cl)cc1-2 [Example 358, 8-[(3-chloroisonicotinoyl)amino]-1-{4-[(trifluoromethyl)sulfonyl]phenyl}-4,5-dihydro-1H-benzo[g]indazole-3-carboxamide hydrochloride] | ≤ 1000
25 | NC(=O)c1nn(-c2ccc(S(=O)(=O)C(F)(F)F)cc2)c2c1CCc1ccc(NC(=O)c3cccnc3Cl)cc1-2 [Example 359, 8-{[(2-chloropyridin-3-yl)carbonyl]amino}-1-{4-[(trifluoromethyl)sulfonyl]phenyl}-4,5-dihydro-1H-benzo[g]indazole-3-carboxamide] | ≤ 1000
26 | NC(=O)c1nn(-c2ccc(F)c(F)c2)c2c1CCc1ccc(NC(=O)c3ccccc3Cl)cc1-2 [Example 363, 8-[(2-chlorobenzoyl)amino]-1-(3,4-difluorophenyl)-4,5-dihydro-1H-benzo[g]indazole-3-carboxamide] | ≤ 1000
27 | NC(=O)c1nn(-c2ccc(F)c(F)c2)c2c1CCc1ccc(NC(=O)c3cccnc3Cl)cc1-2 [Example 364, 8-{[(2-chloropyridin-3-yl)carbonyl]amino}-1-(3,4-difluorophenyl)-4,5-dihydro-1H-benzo[g]indazole-3-carboxamide] | ≤ 1000
28 | NC(=O)c1nn(-c2ccc(F)cc2F)c2c1CCc1ccc(NC(=O)c3cccnc3Cl)cc1-2 [Example 366, 8-{[(2-chloropyridin-3-yl)carbonyl]amino}-1-(2,4-difluorophenyl)-4,5-dihydro-1H-benzo[g]indazole-3-carboxamide] | ≤ 1000
